This passage reports EC50, IC50 and AC50 results from ChEMBL document CHEMBL1201862, “PubChem BioAssay data set” (2004).

Experiment [1] addresses T1, Short transient receptor potential channel 4 (Mus musculus, UniProt Q9QUQ5).
T1 sequence (Q9QUQ5 whole entry): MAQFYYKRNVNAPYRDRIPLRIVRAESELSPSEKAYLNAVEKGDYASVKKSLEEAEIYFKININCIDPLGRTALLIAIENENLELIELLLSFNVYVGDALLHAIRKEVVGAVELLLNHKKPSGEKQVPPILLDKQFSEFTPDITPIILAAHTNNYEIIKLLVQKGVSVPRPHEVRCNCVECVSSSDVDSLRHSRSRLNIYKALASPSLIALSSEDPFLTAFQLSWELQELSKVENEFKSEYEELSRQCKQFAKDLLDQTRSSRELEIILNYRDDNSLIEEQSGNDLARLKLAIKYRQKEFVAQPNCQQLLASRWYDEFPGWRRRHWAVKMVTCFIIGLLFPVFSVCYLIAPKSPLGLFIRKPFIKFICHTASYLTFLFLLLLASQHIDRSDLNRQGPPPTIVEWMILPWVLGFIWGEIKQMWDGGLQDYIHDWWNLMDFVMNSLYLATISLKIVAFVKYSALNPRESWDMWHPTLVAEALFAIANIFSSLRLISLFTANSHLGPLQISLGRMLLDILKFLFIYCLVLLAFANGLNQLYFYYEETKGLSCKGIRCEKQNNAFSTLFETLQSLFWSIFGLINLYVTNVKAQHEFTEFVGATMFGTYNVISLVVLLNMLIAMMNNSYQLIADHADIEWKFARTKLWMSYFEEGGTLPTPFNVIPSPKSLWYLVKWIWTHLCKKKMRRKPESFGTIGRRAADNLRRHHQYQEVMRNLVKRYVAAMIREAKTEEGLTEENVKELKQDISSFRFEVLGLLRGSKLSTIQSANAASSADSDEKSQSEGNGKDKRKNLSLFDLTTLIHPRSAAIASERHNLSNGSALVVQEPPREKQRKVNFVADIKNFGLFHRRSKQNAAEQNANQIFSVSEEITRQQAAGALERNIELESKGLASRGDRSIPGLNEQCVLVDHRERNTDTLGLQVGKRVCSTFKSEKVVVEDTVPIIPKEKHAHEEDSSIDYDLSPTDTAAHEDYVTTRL
Put plainly: calcium entry via TRPC4 opening agents – cell-based, HEK293 TRPC4/mu-opioid, Fluo-4 calcium, dose response (AID 434937). Type of experiment: functional.

Experiment [2] relates to HEK293. Put plainly: inhibition of NOD1-driven NF-kB reporter – cell-based, luminescence, uHTS, primary screen (AID 1578). Particulars: Homo sapiens. Type of experiment: functional.
Experiment [3] deals with HEK293. The experiment is described as follows: cells. Type of experiment: functional, cell-based. Conditions: Homo sapiens.
Experiment [4] relates to HEK293. The experiment is described as follows: cells. Type of experiment: functional, cell-based. Conditions: Homo sapiens. The source holds these as a separate data set.
In experiment [5] the target is Nucleotide-binding oligomerization domain-containing protein 2 (Homo sapiens, UniProt Q9HC29). Put plainly: inhibition of NOD2-driven NF-kB reporter – cell-based, luminescence, uHTS, HEK293 (AID 1566). Type of experiment: functional.
Chain of Nucleotide-binding oligomerization domain-containing protein 2 (Q9HC29 whole entry, the tested form may be a part): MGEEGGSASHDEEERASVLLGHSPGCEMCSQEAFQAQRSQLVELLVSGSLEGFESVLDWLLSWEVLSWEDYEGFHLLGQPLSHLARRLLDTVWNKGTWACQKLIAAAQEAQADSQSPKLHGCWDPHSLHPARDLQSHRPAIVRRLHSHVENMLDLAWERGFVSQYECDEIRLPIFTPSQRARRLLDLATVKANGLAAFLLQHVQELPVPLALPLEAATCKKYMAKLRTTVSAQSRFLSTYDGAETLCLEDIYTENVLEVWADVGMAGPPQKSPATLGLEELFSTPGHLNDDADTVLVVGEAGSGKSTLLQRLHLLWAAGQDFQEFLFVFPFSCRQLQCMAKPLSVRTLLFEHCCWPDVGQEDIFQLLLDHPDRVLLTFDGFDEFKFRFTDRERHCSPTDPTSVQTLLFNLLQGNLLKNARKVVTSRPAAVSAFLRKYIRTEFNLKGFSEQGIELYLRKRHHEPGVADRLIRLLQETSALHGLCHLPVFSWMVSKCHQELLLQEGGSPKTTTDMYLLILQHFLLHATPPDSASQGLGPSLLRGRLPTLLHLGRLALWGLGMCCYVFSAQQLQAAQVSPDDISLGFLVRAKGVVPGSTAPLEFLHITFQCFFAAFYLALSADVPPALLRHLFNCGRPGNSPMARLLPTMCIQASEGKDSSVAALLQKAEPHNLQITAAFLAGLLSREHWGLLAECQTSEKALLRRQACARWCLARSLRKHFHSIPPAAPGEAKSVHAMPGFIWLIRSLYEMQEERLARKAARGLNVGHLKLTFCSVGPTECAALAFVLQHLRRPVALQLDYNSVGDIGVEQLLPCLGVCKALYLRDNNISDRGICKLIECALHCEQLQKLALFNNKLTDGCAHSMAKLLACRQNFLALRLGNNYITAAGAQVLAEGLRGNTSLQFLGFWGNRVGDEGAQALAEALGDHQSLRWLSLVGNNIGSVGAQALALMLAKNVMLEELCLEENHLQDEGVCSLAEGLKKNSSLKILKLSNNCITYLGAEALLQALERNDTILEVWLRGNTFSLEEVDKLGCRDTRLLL
In experiment [6] the test system is HEK293. The experiment is described as follows: NOD2 signaling inhibitors in MDP-stimulated cells, cell-based, uHTS, luminescence (AID 2001). The class given is functional. Conditions: Homo sapiens.
The subject of experiment [7] is HEK293. The experiment is described as follows: cells. The class given is functional, cell-based. Conditions: Homo sapiens. This is another data set of the same source.
Experiment [8] is described as follows: reduction of Shn3 3'UTR-driven luciferase in osteoblasts – cell-based, Clone20 osteoblasts, firefly luciferase, cherry-picked, dose response (AID 624132).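 Further: firefly luciferase luminescence from reporter carrying the Shn3 3'UTR in osteoblasts.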 The class given is functional.
Experiment [9] in a line: loss of viability in HepG2 cells – cell-based, CellTiter-Glo, cherry-picked, cytotoxicity control for Shn3 inhibitor project, dose response (AID 624134). The class given is functional.
The nature of experiment [10]: non-specific 3'UTR reporter inhibition in Clone20-Shn3RL – cell-based, Renilla luciferase, cherry-picked, counter-screen for Shn3 inhibitor project, dose response (AID 624133). The class given is functional.
A short description of experiment [11]: blockers of HIV-1 ZM109 envelope-driven cell-cell fusion – HeLa effector, CEM target cells, luciferase, cherry-pick, dose response (AID 652058).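 Further: luciferase signal from HIV-1 Env mediated cell-cell fusion of effector and target cells.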 The class given is functional, cell-based.
Experiment [12] can be described thus: HIV-1 AD8 envelope cell-cell fusion blockers – cherry-pick, dose response (AID 652062).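 Further: luciferase signal from cell-cell fusion driven by HIV-1 clade B AD8 Env; potency is for inhibitors of fusion seen as a drop in luminescence.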 Type of experiment: functional, cell-based.
For experiment [13], the target named is Luciferin 4-monooxygenase (Photinus pyralis, UniProt P08659). Put plainly: inhibition of purified Photinus pyralis luciferase – biochemical, luminescence, dose response (AID 1891).
Chain of Luciferin 4-monooxygenase (P08659 whole entry): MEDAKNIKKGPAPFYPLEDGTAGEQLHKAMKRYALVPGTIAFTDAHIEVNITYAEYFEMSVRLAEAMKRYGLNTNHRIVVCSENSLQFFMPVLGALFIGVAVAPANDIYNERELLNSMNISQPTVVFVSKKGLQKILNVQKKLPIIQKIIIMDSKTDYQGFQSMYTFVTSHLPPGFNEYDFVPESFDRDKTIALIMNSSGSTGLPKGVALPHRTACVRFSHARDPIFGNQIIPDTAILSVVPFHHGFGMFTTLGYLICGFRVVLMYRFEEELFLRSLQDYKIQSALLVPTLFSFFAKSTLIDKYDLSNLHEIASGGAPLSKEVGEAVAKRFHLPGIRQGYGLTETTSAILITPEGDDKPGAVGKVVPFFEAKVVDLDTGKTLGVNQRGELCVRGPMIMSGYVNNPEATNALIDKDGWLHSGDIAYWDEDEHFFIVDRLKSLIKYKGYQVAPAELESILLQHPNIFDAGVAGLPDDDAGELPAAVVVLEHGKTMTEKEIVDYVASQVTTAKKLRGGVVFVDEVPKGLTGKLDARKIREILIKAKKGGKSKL
Experiment [14] can be described thus: Luminescence Cell-Based Dose Confirmation HTS to Identify Inhibitors of Platelet Dense Granule Release. [Related pubchem assays: 1663 (Primary HTS), 1678 (Summary of Project)]. Type of experiment: functional.
Experiment [15] addresses T2, Calpain-2 catalytic subunit (Sus scrofa, UniProt P43367).
T2 sequence (P43367 whole entry): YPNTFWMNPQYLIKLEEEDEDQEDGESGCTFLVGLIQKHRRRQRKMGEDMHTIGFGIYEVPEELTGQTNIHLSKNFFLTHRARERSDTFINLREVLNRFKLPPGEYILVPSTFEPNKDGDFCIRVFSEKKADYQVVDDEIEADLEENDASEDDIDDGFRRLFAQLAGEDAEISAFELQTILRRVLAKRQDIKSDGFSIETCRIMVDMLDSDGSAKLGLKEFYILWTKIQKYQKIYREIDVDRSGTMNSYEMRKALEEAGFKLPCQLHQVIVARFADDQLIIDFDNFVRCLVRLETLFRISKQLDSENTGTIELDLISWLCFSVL
Put plainly: m-calpain protease blockers, concentration series – biochemical, fluorogenic peptide substrate, dose response (AID 1420). The class given is functional.

Experiment [16] deals with Nonstructural protein 1 (Influenza A virus, UniProt Q194T2). Type of experiment: functional, Influenza A virus (A/California/07/2009(H1N1)).
Chain of Nonstructural protein 1 (Q194T2 whole entry): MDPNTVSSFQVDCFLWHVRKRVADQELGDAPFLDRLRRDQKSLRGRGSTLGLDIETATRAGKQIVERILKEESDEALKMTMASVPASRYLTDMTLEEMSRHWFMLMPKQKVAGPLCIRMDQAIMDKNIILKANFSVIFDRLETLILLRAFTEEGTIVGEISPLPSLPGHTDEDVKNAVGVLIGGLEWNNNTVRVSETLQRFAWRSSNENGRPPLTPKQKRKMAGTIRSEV
Experiment [17] in a line: Trypanosoma cruzi growth suppression in host cells – NIH3T3 host cells, beta-gal luminescence, confirmation (AID 2044).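 Further: intracellular parasites grown in NIH/3T3 mouse fibroblasts as host cells; luminescent beta-galactosidase reporter signal from transgenic T. cruzi replicating inside host cells; inhibitors lower the luminescence signal.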 The class given is functional, cell-based.
Experiment [18] in a line: NIH3T3 cell viability loss – ATP luminescence, mouse fibroblasts, counter-screen, dose response (AID 2010).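 Further: cells exposed to compound for about 90 hours before reading.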 Type of experiment: functional, cell-based.
In experiment [19] the target is T3, G-protein coupled receptor 55 (Homo sapiens, UniProt Q9Y2T6). The experiment is described as follows: selective activators of receptor GPR55 – imaging, U2OS cells, beta-arrestin-GFP redistribution, primary screen (AID 1961). The class given is functional.
T3 sequence (Q9Y2T6 whole entry): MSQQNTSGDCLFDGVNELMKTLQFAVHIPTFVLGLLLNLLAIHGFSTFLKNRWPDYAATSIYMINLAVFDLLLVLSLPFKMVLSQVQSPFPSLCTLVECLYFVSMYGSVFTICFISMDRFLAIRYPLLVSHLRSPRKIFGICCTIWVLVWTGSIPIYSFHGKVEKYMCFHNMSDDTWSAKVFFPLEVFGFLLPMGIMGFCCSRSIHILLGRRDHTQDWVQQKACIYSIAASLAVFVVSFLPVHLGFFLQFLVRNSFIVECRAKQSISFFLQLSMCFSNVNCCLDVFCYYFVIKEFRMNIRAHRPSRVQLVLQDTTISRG
Experiment [20] deals with T4, Bcl-2-related protein A1 (Mus musculus, UniProt Q07440).
T4 sequence (Q07440 whole entry): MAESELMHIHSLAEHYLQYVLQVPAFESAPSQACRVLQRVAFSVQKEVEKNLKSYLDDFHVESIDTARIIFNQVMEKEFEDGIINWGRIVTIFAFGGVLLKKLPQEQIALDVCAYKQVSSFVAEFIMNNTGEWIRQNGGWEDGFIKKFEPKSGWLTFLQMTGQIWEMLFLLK
The class given is functional.

Experiment [21] has as its target T5, Ubiquitin-conjugating enzyme E2 N (Homo sapiens, UniProt P61088).
T5 sequence (P61088 whole entry): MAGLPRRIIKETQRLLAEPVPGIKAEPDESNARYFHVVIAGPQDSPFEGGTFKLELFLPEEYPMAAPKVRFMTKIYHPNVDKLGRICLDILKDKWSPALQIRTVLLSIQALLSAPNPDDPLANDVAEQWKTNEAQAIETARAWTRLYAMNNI
Type of experiment: functional.

For experiment [22], the target named is T5, Ubiquitin-conjugating enzyme E2 N. Type of experiment: functional. The source holds these as a separate data set.
Experiment [23] addresses T6, Cannabinoid receptor 2 (Homo sapiens, UniProt P34972). Put plainly: SAR analysis of antagonists of the Cannabinoid Receptor 2 using an Image-Based Assay - Set 2. [Related pubchem assays (depositor defined):AID1961, AID1965]. Type of experiment: functional.
The target of experiment [24] is T3, G-protein coupled receptor 55. Put plainly: SAR analysis of selective Agonists of GPR55 using an Image-Based Assay - Set 2. [Related pubchem assays (depositor defined):AID1961, AID1965]. Type of experiment: functional.
Experiment [25] deals with T6, Cannabinoid receptor 2. Put plainly: SAR analysis of agonists of the Cannabinoid Receptor 2 using an Image-Based Assay - Set 2. [Related pubchem assays (depositor defined):AID1961, AID1965]. Type of experiment: functional.
Experiment [26] concerns the target T7, G-protein coupled receptor 35 (Homo sapiens, UniProt Q9HC97). Put plainly: SAR analysis of Agonists of the GPR35 Receptor using an Image-Based Assay - Set 3. [Related pubchem assays (depositor defined):AID1961, AID1965]. The class given is functional.
Experiment [27] has as its target T8, Cannabinoid receptor 1 (Homo sapiens, UniProt P21554). Put plainly: SAR analysis of antagonists of the Cannabinoid Receptor 1 using an Image-Based Assay - Set 3. [Related pubchem assays (depositor defined):AID1961, AID1965]. The class given is functional.
In experiment [28] the target is T8, Cannabinoid receptor 1. The experiment is described as follows: SAR analysis of agonists of the Cannabinoid Receptor 1 using an Image-Based Assay - Set 3. [Related pubchem assays (depositor defined):AID1961, AID1965]. Type of experiment: functional.
Experiment [29] addresses T7, G-protein coupled receptor 35. Put plainly: SAR analysis of Antagonists of the GPR35 Receptor using an Image-Based Assay - Set 4. [Related pubchem assays (depositor defined):[…]]. Type of experiment: functional.

SMILES strings stand for the structures. Active and inactive are the calls of the source.

T6 sequence (P34972 whole entry): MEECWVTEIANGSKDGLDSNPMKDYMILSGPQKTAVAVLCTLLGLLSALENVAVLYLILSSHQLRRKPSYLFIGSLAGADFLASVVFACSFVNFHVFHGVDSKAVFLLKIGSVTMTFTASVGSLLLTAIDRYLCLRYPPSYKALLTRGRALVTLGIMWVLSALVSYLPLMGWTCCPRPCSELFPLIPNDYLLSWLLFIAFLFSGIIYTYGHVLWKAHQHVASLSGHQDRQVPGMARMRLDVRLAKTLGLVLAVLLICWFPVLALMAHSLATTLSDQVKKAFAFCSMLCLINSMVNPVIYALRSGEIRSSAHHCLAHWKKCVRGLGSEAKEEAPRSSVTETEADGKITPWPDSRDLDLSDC
T7 sequence (Q9HC97 whole entry): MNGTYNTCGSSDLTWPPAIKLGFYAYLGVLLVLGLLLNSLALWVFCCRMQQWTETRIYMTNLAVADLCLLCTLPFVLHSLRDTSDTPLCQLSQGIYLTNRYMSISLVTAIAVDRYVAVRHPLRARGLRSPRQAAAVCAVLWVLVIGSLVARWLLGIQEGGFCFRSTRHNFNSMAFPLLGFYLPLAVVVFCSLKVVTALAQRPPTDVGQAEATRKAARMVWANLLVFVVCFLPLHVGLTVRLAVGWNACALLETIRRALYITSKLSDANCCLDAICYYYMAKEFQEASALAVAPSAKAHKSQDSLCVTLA
T8 sequence (P21554 whole entry): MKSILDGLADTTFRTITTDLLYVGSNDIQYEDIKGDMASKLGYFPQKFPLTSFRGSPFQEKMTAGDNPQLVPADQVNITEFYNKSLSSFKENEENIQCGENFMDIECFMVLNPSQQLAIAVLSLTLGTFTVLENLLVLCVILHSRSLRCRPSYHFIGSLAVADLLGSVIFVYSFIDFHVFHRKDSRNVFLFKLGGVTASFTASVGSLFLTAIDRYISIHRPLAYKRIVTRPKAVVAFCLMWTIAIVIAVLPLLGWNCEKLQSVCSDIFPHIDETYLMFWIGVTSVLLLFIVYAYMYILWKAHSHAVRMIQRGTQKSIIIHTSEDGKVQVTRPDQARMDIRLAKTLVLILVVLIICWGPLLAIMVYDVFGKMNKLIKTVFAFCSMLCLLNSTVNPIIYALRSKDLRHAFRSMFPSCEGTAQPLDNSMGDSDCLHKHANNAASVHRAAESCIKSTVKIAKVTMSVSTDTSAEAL

Consider `Cc1ccc(-n2cc(CNCC3CC(=O)N(C4CC4)C3)c(-c3cccc(C)c3)n2)cc1` (stereo not given), for which the EC50 in experiment [1] is 6.68 µM (active).

With `Cc1sc2ncnc(N3CCN(S(=O)(=O)c4ccc(Br)cc4)CC3)c2c1C`, the EC50 is 4.21 µM (active) in [2] and 4.22 µM (active) in experiment [5]. The IC50 in experiment [3] is 4.16 µM (active); in experiment [4], 11.6 µM (active); in [6], 5.47 µM (active); in [7] it was > 20 µM (inactive). In addition, the AC50 in experiment [8] was 3.59 µM (active); in experiment [9] it was 47.8 µM (active); in [10], 6.05 µM (active); in [11], 21.5 µM (active); in experiment [12], 21.2 µM (active).

For the molecule `CCN(CC)c1ccc(/C=C(\C#N)C(N)=S)cc1`, the EC50 in experiment [13] was 22.7 µM (active); in experiment [14], > 112 µM (not active). The IC50 in [15] was 5.92 µM (not active); in experiment [16], 39.1 µM (active).

Turning to `Cn1c(SCC(=O)N2c3ccccc3Sc3ccccc32)nc2ccccc21`, the 50% effective concentration (EC50) was 2.77 µM (active) in [17], > 30 µM (not active) in [18] and 1.29 µM (active) in [19].

For the molecule `COc1ccccc1NC(=O)c1cc(S(=O)(=O)N2CCCCCC2)ccc1F`, the IC50 in experiment [20] is > 20 µM (inactive); in experiment [21], 10.6 µM (active); in experiment [22] it was 9.99 µM (active).

As to `O=C(NNC(=O)c1nn(-c2ccc(F)cc2)ccc1=O)c1ccc(C(F)(F)F)cc1`, the IC50 is > 20 µM (inactive) in experiment [20], 16.7 µM (active) in [21] and 10.2 µM (active) in experiment [22].

In the case of `CN(C)S(=O)(=O)c1ccc(Cl)c(C(=O)N2CCN(c3ccc([N+](=O)[O-])cc3)CC2)c1`, the IC50 in experiment [23], in [27] and in [29] was > 32 µM (inactive) in each case. The 50% effective concentration (EC50) is 6.98 µM (active) in [24], > 32 µM (inactive) in experiment [25], > 32 µM (inactive) in experiment [26] and > 32 µM (inactive) in experiment [28].

`O=C(NC1CCCN(Cc2ccc(Cl)cc2)C1)C1CCC1` (stereo not given): the EC50 in experiment [1] was 1.33 µM (active).

Regarding `CC(C)Oc1ccc(S(=O)(=O)N2CCOCC2)cc1NC(=O)c1cc2c(s1)CCCCC2`, the results for the IC50 in experiment [23], in experiment [27] and in experiment [29] were > 32 µM (inactive), 27.5 µM (inactive) and > 32 µM (inactive), respectively. Also, the EC50 in experiment [24], in experiment [25], in experiment [26] and in experiment [28] was > 32 µM (inactive) in each case.
